Read-outs that look alike come from different tables or passages of the source.
Legend:
IKZF2 (Helios) = IKZF2 (Helios) (Homo sapiens, UniProt Q96SW2+Q9UKS7); experiment: Prolabel quantification of IKZF2 protein levels in 293GT cells; type: cell-based
Experimental: The Prolabel system from DiscoverX was used to develop high-throughput and quantitative assays to measure changes in IKZF1 and IKZF2 protein levels in response to compounds. The prolabel tag was derived from the alpha fragment of beta galactosidase and has the following protein sequence: mssnslavvlqrrdwenpgvtglnrlaahppfaswrnseeartdrpsqqlrsinge. The complementary fragment of beta-galactosidase (from DiscoverX), is added to the prolabel tag to form an active beta galactosidase enzyme whose activity can be precisely measured. In this way, the levels of a fusion protein with the prolabel tag can be quantified in cell lysates.
Lentiviral vectors, based on the Invitrogen pLenti6.2/V5 DEST backbone, were constructed that placed the prolabel tag upstream of IKZF1, IKZF2 or GSPT1 and expressed the fusion protein from a CMV promoter.
To ensure moderate and consistent expression of the prolabel fusion proteins across all cells in the population, stable cell lines were constructed from cells expressing a single copy of the construct. Lentivirus packaged with the constructs was made using the Virapower kit from Invitrogen.
The levels of prolabel tagged fusion proteins in compound treated cell lines were measured as follows: Day 1, Cells were diluted to 1.0×10^6 cells/ml in normal growth medium. 17.5 μL of cells were plated in each well of a solid white 384 well plate. Plates were incubated overnight in a 37° C. tissue culture incubator.
Day 2, Serial dilutions of compounds were made in 384 well plates from 10 mM stocks. 15 μL of DMSO was added to each well of a 384 well plate. In the first column, 15 μL of stock compound was added. The solution was mixed and 15 μL was transferred to the next column. This was repeated until 20 two-fold dilutions were prepared. 2.5 μL of diluted compounds were transferred into 60 μL of cell culture medium in another 384 well plate, and mixed well. 2.5 μL of this mixture was added to the plated cells. The final DMSO concentration was 0.5% and the highest concentration of compound was 50 μM. Plates were incubated overnight (e.g., about 14 h, 18 h, or 24 h) in a 37° C. tissue culture incubator.
Day 3, Plates were removed from the incubator and allowed to equilibrate at rt for 30 minutes. Prolabel substrate (DiscoverX PathHunter Prolabel Detection Kit, User manual: 93-0180) was added as described by the manufacturers protocols. Plates were incubated at rt for three hours and luminescence was read using an Envision reader (Perkin Elmer) Data was analyzed and visualized using the Spotfire software package.

human TGF-β2 = molecular target: T1, human TGF-β2 (Homo sapiens, UniProt P61812); conditions: Biacore; cited from earlier work
T1 sequence (P61812 303-414 limits assumed): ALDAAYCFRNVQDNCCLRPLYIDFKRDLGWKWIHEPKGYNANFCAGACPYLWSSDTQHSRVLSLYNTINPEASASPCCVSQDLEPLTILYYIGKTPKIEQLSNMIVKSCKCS

human TGF-β3 = molecular target: T2, human TGF-β3 (Homo sapiens, UniProt P10600); conditions: Biacore; cited from earlier work
T2 sequence (P10600 301-412 limits assumed): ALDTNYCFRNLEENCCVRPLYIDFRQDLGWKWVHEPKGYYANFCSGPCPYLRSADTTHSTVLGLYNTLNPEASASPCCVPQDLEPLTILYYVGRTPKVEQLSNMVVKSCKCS

IKZF2 (Helios), sequence (Q9UKS7 whole entry, the tested form may be a part): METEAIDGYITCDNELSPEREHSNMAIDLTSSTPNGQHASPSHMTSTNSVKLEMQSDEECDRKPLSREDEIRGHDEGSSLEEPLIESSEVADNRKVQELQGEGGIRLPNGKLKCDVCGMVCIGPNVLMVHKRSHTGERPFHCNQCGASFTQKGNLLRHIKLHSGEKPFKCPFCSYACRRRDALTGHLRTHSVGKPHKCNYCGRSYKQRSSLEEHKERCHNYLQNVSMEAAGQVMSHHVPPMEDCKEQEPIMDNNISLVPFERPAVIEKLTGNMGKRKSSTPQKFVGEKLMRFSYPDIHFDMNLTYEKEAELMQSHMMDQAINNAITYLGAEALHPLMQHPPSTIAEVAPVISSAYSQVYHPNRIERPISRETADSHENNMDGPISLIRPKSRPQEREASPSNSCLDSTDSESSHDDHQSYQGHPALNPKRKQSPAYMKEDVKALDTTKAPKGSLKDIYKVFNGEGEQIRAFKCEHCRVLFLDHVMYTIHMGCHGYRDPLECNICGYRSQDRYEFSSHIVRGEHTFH
IKZF2 (Helios), sequence (Q96SW2 whole entry, the tested form may be a part): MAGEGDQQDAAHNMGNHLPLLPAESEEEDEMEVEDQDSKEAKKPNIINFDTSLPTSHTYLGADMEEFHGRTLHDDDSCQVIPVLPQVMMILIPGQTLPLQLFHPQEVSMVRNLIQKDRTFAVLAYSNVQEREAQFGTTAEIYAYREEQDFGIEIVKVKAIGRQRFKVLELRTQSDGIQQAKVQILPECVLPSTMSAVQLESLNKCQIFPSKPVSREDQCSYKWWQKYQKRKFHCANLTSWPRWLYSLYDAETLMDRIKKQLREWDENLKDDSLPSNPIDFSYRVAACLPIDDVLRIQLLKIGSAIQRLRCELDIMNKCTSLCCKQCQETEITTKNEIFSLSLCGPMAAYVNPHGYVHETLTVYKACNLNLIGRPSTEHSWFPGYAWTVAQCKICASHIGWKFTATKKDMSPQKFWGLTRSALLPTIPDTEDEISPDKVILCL
IKZF2 (Helios), sequence (Q16531 whole entry partner, the tested form may be a part): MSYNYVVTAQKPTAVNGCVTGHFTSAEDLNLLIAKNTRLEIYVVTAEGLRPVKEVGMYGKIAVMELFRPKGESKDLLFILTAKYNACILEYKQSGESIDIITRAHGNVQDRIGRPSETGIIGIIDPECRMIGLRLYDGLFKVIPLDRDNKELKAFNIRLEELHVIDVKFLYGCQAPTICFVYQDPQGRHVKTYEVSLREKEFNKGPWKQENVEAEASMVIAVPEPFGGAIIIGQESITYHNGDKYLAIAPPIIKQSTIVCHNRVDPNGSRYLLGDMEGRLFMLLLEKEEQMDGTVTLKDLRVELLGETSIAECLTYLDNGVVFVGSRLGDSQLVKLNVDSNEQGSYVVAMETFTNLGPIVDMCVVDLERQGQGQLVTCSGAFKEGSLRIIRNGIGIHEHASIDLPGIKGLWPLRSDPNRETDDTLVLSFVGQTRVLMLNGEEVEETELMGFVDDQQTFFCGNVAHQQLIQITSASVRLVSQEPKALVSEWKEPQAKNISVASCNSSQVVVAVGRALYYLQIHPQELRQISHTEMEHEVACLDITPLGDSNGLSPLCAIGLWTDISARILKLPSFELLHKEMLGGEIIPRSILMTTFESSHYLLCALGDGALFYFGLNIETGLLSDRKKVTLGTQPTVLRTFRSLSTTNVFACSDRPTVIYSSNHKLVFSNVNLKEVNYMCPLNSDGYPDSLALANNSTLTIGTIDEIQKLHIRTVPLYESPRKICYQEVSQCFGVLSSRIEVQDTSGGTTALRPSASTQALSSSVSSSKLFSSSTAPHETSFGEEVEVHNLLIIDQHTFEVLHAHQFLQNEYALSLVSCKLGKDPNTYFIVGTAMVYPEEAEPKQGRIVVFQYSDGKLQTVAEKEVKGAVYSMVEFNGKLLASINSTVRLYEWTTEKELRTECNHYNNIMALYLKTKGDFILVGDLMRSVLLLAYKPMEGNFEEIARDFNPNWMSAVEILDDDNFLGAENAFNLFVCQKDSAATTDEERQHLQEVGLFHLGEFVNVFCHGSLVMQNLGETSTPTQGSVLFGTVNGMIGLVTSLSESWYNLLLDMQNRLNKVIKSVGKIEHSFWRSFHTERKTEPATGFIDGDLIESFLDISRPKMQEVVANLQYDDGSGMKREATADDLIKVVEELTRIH

Compound | IKZF2 % protein reduction at 10 μM, 24 h (IKZF2 (Helios); 10 μM, 24 h, 293GT cells) | other results
O=C1CCC(N2Cc3cc(C4CCN(Cc5ccc(=O)[nH]c5)CC4)ccc3C2=O)C(=O)N1 (centres unmarked) [Compound I-1, 3-(1-oxo-5-(1-((6-oxo-1,6-dihydropyridin-3-yl)methyl)piperidin-4-yl)isoindolin-2-yl)piperidine-2,6-dione] |  | IKZF2 % protein reduction at 10 μM, 24 h (IKZF2 (Helios)): 70%
CC1CC(c2ccc3c(c2)CN(C2CCC(=O)NC2=O)C3=O)CC(C)N1Cc1ccccc1 (centres unmarked) [Compound I-2, 3-(5-(1-benzyl-2,6-dimethylpiperidin-4-yl)-1-oxoisoindolin-2-yl)piperidine-2,6-dione] |  | IKZF2 % protein reduction at 30 uM (IKZF2 (Helios)): 35% at
N#C[C@H]1CC[C@H](CN2CCC(c3ccc4c(c3)CN(C3CCC(=O)NC3=O)C4=O)CC2)CC1 (some centres unmarked) [Compound I-3, (1r,4r)-4-((4-(2-(2,6-dioxopiperidin-3-yl)-1-oxoisoindolin-5-yl)piperidin-1-yl)methyl)cyclohexane-1-carbonitrile] | 60% | 
CCOc1ccc(CN2CCC(c3ccc4c(c3)CN(C3CCC(=O)NC3=O)C4=O)CC2)nc1 (centres unmarked) [Compound I-5, 3-(5-(1-((5-ethoxypyridin-2-yl)methyl)piperidin-4-yl)-1-oxoisoindolin-2-yl)piperidine-2,6-dione] | 60% | 
COc1ccc(CN2CCC(c3ccc4c(c3)CN(C3CCC(=O)NC3=O)C4=O)CC2)nc1 (centres unmarked) [Compound I-6, 3-(5-(1-((5-methoxypyridin-2-yl)methyl)piperidin-4-yl)-1-oxoisoindolin-2-yl)piperidine-2,6-dione] | 50% | 
COc1ccc(CN2CCC(c3ccc4c(c3)CN(C3CCC(=O)NC3=O)C4=O)CC2)cn1 (centres unmarked) [Compound I-7, 3-(5-(1-((6-methoxypyridin-3-yl)methyl)piperidin-4-yl)-1-oxoisoindolin-2-yl)piperidine-2,6-dione] | 80% | 
CCOc1ccc(CN2CCC(c3ccc4c(c3)CN(C3CCC(=O)NC3=O)C4=O)CC2)cn1 (centres unmarked) [Compound I-8, 3-(5-(1-((6-ethoxypyridin-3-yl)methyl)piperidin-4-yl)-1-oxoisoindolin-2-yl)piperidine-2,6-dione] | 70% | 
O=C1CCC(N2Cc3cc(C4CCN(CC5CCC(CF)CC5)CC4)ccc3C2=O)C(=O)N1 (centres unmarked) [Compound I-10, 3-(5-(1-((4-(fluoromethyl)cyclohexyl)methyl)piperidin-4-yl)-1-oxoisoindolin-2-yl)piperidine-2,6-dione] | 75% | 
O=C1CCC(N2Cc3cc(C4CCN(CCn5cccn5)CC4)ccc3C2=O)C(=O)N1 (centres unmarked) [Compound I-11, 3-(5-(1-(2-(1H-pyrazol-1-yl)ethyl)piperidin-4-yl)-1-oxoisoindolin-2-yl)piperidine-2,6-dione] | 60% | 
CC1=CCC(CN2CCC(c3ccc4c(c3)CN(C3CCC(=O)NC3=O)C4=O)CC2)CC1 (centres unmarked) [Compound I-13, 3-(5-(1-((4-methylcyclohex-3-en-1-yl)methyl)piperidin-4-yl)-1-oxoisoindolin-2-yl)piperidine-2,6-dione] | 80% | 
O=C1CCC(N2Cc3cc(C4CCN(Cc5cnccn5)CC4)ccc3C2=O)C(=O)N1 (centres unmarked) [Compound I-14, 3-(1-oxo-5-(1-(pyrazin-2-ylmethyl)piperidin-4-yl)isoindolin-2-yl)piperidine-2,6-dione] | 55% | 
O=C1CCC(N2Cc3cc(C4CCN(Cc5cccnn5)CC4)ccc3C2=O)C(=O)N1 (centres unmarked) [Compound I-15, 3-(1-oxo-5-(1-(pyridazin-3-ylmethyl)piperidin-4-yl)isoindolin-2-yl)piperidine-2,6-dione] | 40% | 
O=C1CCC(N2Cc3cc(C4CCN(Cc5ccncn5)CC4)ccc3C2=O)C(=O)N1 (centres unmarked) [Compound I-16, 3-(1-oxo-5-(1-(pyrimidin-4-ylmethyl)piperidin-4-yl)isoindolin-2-yl)piperidine-2,6-dione] | 50% | 
Cc1ncc(CN2CCC(c3ccc4c(c3)CN(C3CCC(=O)NC3=O)C4=O)CC2)cn1 (centres unmarked) [Compound I-17, 3-(5-(1-((2-methylpyrimidin-5-yl)methyl)piperidin-4-yl)-1-oxoisoindolin-2-yl)piperidine-2,6-dione] | 50% | 
O=C1CCC(N2Cc3cc(C4CCN(Cc5ccnnc5)CC4)ccc3C2=O)C(=O)N1 (centres unmarked) [Compound I-18, 3-(1-oxo-5-(1-(pyridazin-4-ylmethyl)piperidin-4-yl)isoindolin-2-yl)piperidine-2,6-dione] | 40% | 
CC(C1CCOCC1)N1CCC(c2ccc3c(c2)CN(C2CCC(=O)NC2=O)C3=O)CC1 (centres unmarked) [Compound I-30, 3-(1-oxo-5-(1-(1-(tetrahydro-2H-pyran-4-yl)ethyl)piperidin-4-yl)isoindolin-2-yl)piperidine-2,6-dione] | 80% | 
CCn1cc(C(C)N2CCC(c3ccc4c(c3)CN(C3CCC(=O)NC3=O)C4=O)CC2)cn1 (centres unmarked) [Compound I-31, 3-(5-(1-(1-(1-ethyl-1H-pyrazol-4-yl)ethyl)piperidin-4-yl)-1-oxoisoindolin-2-yl)piperidine-2,6-dione] | 70% | 
CCC(c1cnn(CC)c1)N1CCC(c2ccc3c(c2)CN(C2CCC(=O)NC2=O)C3=O)CC1 (centres unmarked) [Compound I-32, 3-(5-(1-(1-(1-ethyl-1H-pyrazol-4-yl)propyl)piperidin-4-yl)-1-oxoisoindolin-2-yl)piperidine-2,6-dione] | 62% | 
CCC(c1cnccn1)N1CCC(c2ccc3c(c2)CN(C2CCC(=O)NC2=O)C3=O)CC1 (centres unmarked) [Compound I-33, 3-(1-oxo-5-(1-(1-(pyrazin-2-yl)propyl)piperidin-4-yl)isoindolin-2-yl)piperidine-2,6-dione] | 62% | 
O=C1CCC(N2Cc3cc(C4CCN(C5CCc6ncccc65)CC4)ccc3C2=O)C(=O)N1 (centres unmarked) [Compound I-35, 3-(5-(1-(6,7-dihydro-5H-cyclopenta[b]pyridin-5-yl)piperidin-4-yl)-1-oxoisoindolin-2-yl)piperidine-2,6-dione] | 80% | 
COC1CCC(N2CCC(c3ccc4c(c3)CN(C3CCC(=O)NC3=O)C4=O)CC2)CC1 (centres unmarked) [Compound I-36, 3-(5-(1-(4-methoxycyclohexyl)piperidin-4-yl)-1-oxoisoindolin-2-yl)piperidine-2,6-dione] | 74% | 
XOMA 089: fully human monoclonal antibody that specifically binds and neutralizes TGF-beta 1 and 2 ligands |  | Kd (human TGF-β2): 67.3 µM; Kd (human TGF-β3): 948 µM

From patent publication US20250289802A1, “3-(1-OXO-5-(PIPERIDIN-4-YL)ISOINDOLIN-2-YL)PIPERIDINE-2,6-DIONE DERIVATIVES AND USES THEREOF” (NOVARTIS AG, priority 2019, published 2025)
